The values below come from ChEMBL document CHEMBL1153545 (Antimicrob Agents Chemother, 2007).

≈ marks a conversion by molar mass, not a printed value. Calls of active or inactive are those of the source. The rule behind the calls is not given here.

A word on the half-life: it is how long it takes for the measured level to halve. As a reminder, the MBC is the lowest tested concentration that kills the bacteria rather than only halting them. The term MIC denotes the least concentration at which growth counts as inhibited.

For data set [1], the system named is Streptococcus pneumoniae. Briefly: Inhibition of efflux pump in Streptococcus pneumoniae Spn-058 with harboring Ser79Tyr mutation in parC gene assessed as decrease in ciprofloxacin MIC.
Data set [2] concerns Streptococcus pneumoniae. Description: Inhibition of efflux pump in Streptococcus pneumoniae Spn-058 with harboring mutation in parC gene assessed as decrease in levofloxacin MIC.
In data set [3] the test system is Streptococcus pneumoniae. Briefly: Inhibition of efflux pump in Streptococcus pneumoniae Spn-058 harboring mutation in parC and […] gene assessed as decrease in ciprofloxacin MIC.
For data set [4], the system named is Streptococcus pneumoniae. Briefly: Antimicrobial activity against Streptococcus pneumoniae Spn-058 assessed as bacterial load. The format is functional, organism-based.
Data set [5] has as its system Streptococcus pneumoniae. Description: Antimicrobial activity against Streptococcus pneumoniae Spn-RC2 infected in one-compartment pharmacodynamic system assessed as decrease in bacterial density administered at simulated at 500 mg QD dosage regimen for 10 days measured after 24 hrs by quantitative culture assay. The format is functional, organism-based.
The subject of data set [6] is Streptococcus pneumoniae. Description: Inhibition of efflux pump in Streptococcus pneumoniae Spn-058 assessed as ethidium bromide uptake at 20 ug/ml.
Data set [7] concerns Streptococcus pneumoniae. Description: Inhibition of efflux pump in Streptococcus pneumoniae Spn-RC2 assessed as ethidium bromide uptake at 20 ug/ml.
Data set [8] relates to Streptococcus pneumoniae. Description: Induction of efflux pump expression in Streptococcus pneumoniae Spn-058 harboring mutation in gyrA gene at 20 ug/ml.
The test system of data set [9] is Streptococcus pneumoniae. Description: Inhibition of efflux pump in Streptococcus pneumoniae Spn-RC2 assessed as reduction in ciprofloxacin MIC at 20 ug/ml by broth microdilution method.
Data set [10] relates to Streptococcus pneumoniae. Briefly: Inhibition of efflux pump in Streptococcus pneumoniae Spn-RC2 assessed as reduction in levofloxacin at 20 ug/ml MIC by broth microdilution method. (In general: In broth dilution the organism is exposed to a series of concentrations in liquid medium.)
Data set [11] relates to Streptococcus pneumoniae. Description: Inhibition of efflux pump in Streptococcus pneumoniae Spn-RC2 assessed as reduction in ciprofloxacin MIC by agar microdilution method.
In data set [12] the test system is Streptococcus pneumoniae. Briefly: Inhibition of efflux pump in Streptococcus pneumoniae Spn-RC2 assessed as reduction in levofloxacin MIC by agar microdilution method.
Data set [13] deals with Streptococcus pneumoniae. Briefly: Induction of efflux pump expression in Streptococcus pneumoniae Spn-058 after 5 hrs by ethidium bromide uptake assay.
In data set [14] the test system is Streptococcus pneumoniae. Briefly: Inhibition of efflux pump in Streptococcus pneumoniae Spn-058 assessed as change in levofloxacin MIC at 20 ug/ml by broth macrodilution method.
For data set [15], the system named is Streptococcus pneumoniae. Description: Inhibition of efflux pump in Streptococcus pneumoniae Spn-058 assessed as change in ciprofloxacin MIC at 20 ug/ml by broth macrodilution method.
The test system of data set [16] is Streptococcus pneumoniae. Briefly: Inhibition of efflux pump in Streptococcus pneumoniae Spn-058 assessed as change in levofloxacin MIC by agar dilution method. (In agar dilution the substance is mixed into plates at graded concentrations.)
For data set [17], the system named is Streptococcus pneumoniae. Briefly: Inhibition of efflux pump in Streptococcus pneumoniae Spn-058 assessed as change in ciprofloxacin MIC by agar dilution method.
For data set [18], the system named is Streptococcus pneumoniae. Description: Inhibition of efflux pump in Streptococcus pneumoniae Spn-RC2 assessed as change in levofloxacin MIC by agar dilution method.
The subject of data set [19] is Streptococcus pneumoniae. Description: Inhibition of efflux pump in Streptococcus pneumoniae Spn-RC2 assessed as change in ciprofloxacin MIC by agar dilution method.
In data set [20] the test system is Streptococcus pneumoniae. Briefly: Inhibition of efflux pump in Streptococcus pneumoniae Spn-058 infected in one-compartment pharmacodynamic system assessed as repid killing administered levofloxacin at simulated oral dose regimen of 500 mg in human measured on day 6.
Data set [21] deals with Streptococcus pneumoniae. Briefly: Inhibition of efflux pump in Streptococcus pneumoniae Spn-058 infected in one-compartment pharmacodynamic system assessed as repid killing administered levofloxacin at simulated oral dose regimen of 750 mg in human every 12 hrs measured on day 6.
The subject of data set [22] is Streptococcus pneumoniae. Briefly: Inhibition of efflux pump in Streptococcus pneumoniae Spn-058 infected in one-compartment pharmacodynamic system assessed as repid killing administered levofloxacin at simulated oral dose regimen of 750 mg in human every 24 hrs measured on day 10.
In data set [23] the test system is Streptococcus pneumoniae. Briefly: Antimicrobial activity against Streptococcus pneumoniae Spn-058 infected in one-compartment pharmacodynamic system assessed as prevention of regrowth administered ciprofloxacin at simulated oral dose regimen of 750 mg in human every 12 hrs measured on day 10. The format is functional, organism-based.
Data set [24] has as its system Streptococcus pneumoniae. Briefly: Antimicrobial activity against Streptococcus pneumoniae Spn-RC2 infected in one-compartment pharmacodynamic system assessed as regrowth of bacteria administered at simulated at 750 mg dosage regimen every 12 hrs measured on day 8. The format is functional, organism-based.
Data set [25] concerns Streptococcus pneumoniae. Briefly: Inhibition of ciprofloxacin-induced efflux pump expression in Streptococcus pneumoniae Spn-058 after 5 hrs by ethidium bromide uptake assay.
For data set [26], the system named is Streptococcus pneumoniae. Briefly: Induction of efflux pump expression in Streptococcus pneumoniae Spn-RC2 after 5 hrs by ethidium bromide uptake assay.
Data set [27] has as its system Streptococcus pneumoniae. Description: Inhibition of efflux pump in ciprofloxacin pretreated Streptococcus pneumoniae Spn-RC2 at 20 ug/ml by ethidium bromide uptake assay.
Data set [28] relates to Streptococcus pneumoniae. Description: Antimicrobial activity against Streptococcus pneumoniae Spn-058 at 5.5 to 8 log10 CFU/ml bacterial density measured within 24 hrs. The format is functional, organism-based.
The test system of data set [29] is Streptococcus pneumoniae. Briefly: Inhibition of efflux pump in Streptococcus pneumoniae Spn-058 assessed as reduction in ciprofloxacin MIC by broth microdilution method.
The test system of data set [30] is Streptococcus pneumoniae. Description: Inhibition of efflux pump in Streptococcus pneumoniae Spn-058 assessed as reduction in levofloxacin MIC by broth microdilution method.
The subject of data set [31] is Streptococcus pneumoniae. Briefly: Inhibition of efflux pump in Streptococcus pneumoniae Spn-058 assessed as reduction in ciprofloxacin MIC by agar dilution method.
Data set [32] concerns Streptococcus pneumoniae. Description: Inhibition of efflux pump in Streptococcus pneumoniae Spn-058 assessed as reduction in levofloxacin MIC by agar dilution method.
Data set [33] concerns Streptococcus pneumoniae. Briefly: Antimicrobial activity against Streptococcus pneumoniae Spn-058 infected in one-compartment pharmacodynamic system assessed as decrease in bacterial population administered at simulated at 750 mg dosage regimen every 12 hrs for 10 days by quantitative culture assay. The format is functional, organism-based.
Data set [34] deals with Streptococcus pneumoniae. Briefly: Antimicrobial activity against Streptococcus pneumoniae Spn-058 infected in one-compartment pharmacodynamic system assessed as reduction in bacterial density administered at simulated at 500 mg QD dosage regimen measured on day 1. The format is functional, organism-based.
The test system of data set [35] is Streptococcus pneumoniae. Description: Antimicrobial activity against Streptococcus pneumoniae Spn-058 infected in one-compartment pharmacodynamic system assessed as regrowth of bacteria administered at simulated at 500 mg QD dosage regimen measured on day 6. The format is functional, organism-based.
Data set [36] concerns Streptococcus pneumoniae. Briefly: Antimicrobial activity against Streptococcus pneumoniae Spn-RC2 infected in one-compartment pharmacodynamic system assessed as regrowth of bacteria administered at simulated at 750 mg dosage regimen every 12 hrs measured on day 3. The format is functional, organism-based.
Data set [37] in a line: Stability assessed as degradation half life. The format is physicochemical.
Data set [38] concerns Streptococcus pneumoniae. Briefly: Antimicrobial activity against Streptococcus pneumoniae Spn-058 by broth macrodilution technique in presence of 5% lysed horse blood. The format is functional.
The nature of data set [39]: Free AUC (0 to 24 hrs) in one-compartment pharmacodynamic system administered at simulated oral dose regimen of 500 mg in human for 10 days. The format is ADME.
Data set [40] is described as follows: Half life in one-compartment pharmacodynamic system administered at simulated oral dose regimen of 500 mg in human for 10 days. The format is ADME, organism-based.
Data set [41] concerns Streptococcus pneumoniae. Briefly: Antimicrobial activity against Streptococcus pneumoniae Spn-RC2 infected in one-compartment pharmacodynamic system assessed as decrease in bacterial population administered at simulated oral dose regimen of 500 mg in human for 10 days by quantitative culture assay. The format is functional, organism-based.
The subject of data set [42] is Streptococcus pneumoniae. Briefly: Antimicrobial activity against Streptococcus pneumoniae Spn-058 infected in one-compartment pharmacodynamic system assessed as reduction in bacterial density administered at simulated oral dose regimen of 750 mg in human every 12 hrs measured on day 1. The format is functional, organism-based.
Data set [43] deals with Streptococcus pneumoniae. Briefly: Antimicrobial activity against Streptococcus pneumoniae Spn-058 infected in one-compartment pharmacodynamic system assessed as regrowth of bacteria administered at simulated oral dose regimen of 750 mg in human every 12 hrs measured on day 2. The format is functional, organism-based.
For data set [44], the system named is Streptococcus pneumoniae. Briefly: Antimicrobial activity against Streptococcus pneumoniae Spn-RC2 by broth macrodilution technique.

For `COC(=O)[C@H]1[C@H]2C[C@@H]3c4[nH]c5cc(OC)ccc5c4CCN3C[C@H]2C[C@@H](OC(=O)c2cc(OC)c(OC)c(OC)c2)[C@@H]1OC`, the result in the data set with Streptococcus pneumoniae [1], with Streptococcus pneumoniae [2], in the data set with Streptococcus pneumoniae [3], in the data set on Streptococcus pneumoniae [4], in the data set with Streptococcus pneumoniae [6] and in the data set on Streptococcus pneumoniae [7] was Active. Further, the outcome with Streptococcus pneumoniae [8], with Streptococcus pneumoniae [9], in the data set on Streptococcus pneumoniae [10], in the data set with Streptococcus pneumoniae [11], in the data set with Streptococcus pneumoniae [12] and in the data set with Streptococcus pneumoniae [13] was Active. In addition, the outcome in the data set on Streptococcus pneumoniae [16], in the data set with Streptococcus pneumoniae [17], with Streptococcus pneumoniae [18], with Streptococcus pneumoniae [19], with Streptococcus pneumoniae [20] and in the data set on Streptococcus pneumoniae [21] was Active. Besides, the outcome with Streptococcus pneumoniae [22], in the data set on Streptococcus pneumoniae [23], in the data set with Streptococcus pneumoniae [25], in the data set on Streptococcus pneumoniae [26], in the data set on Streptococcus pneumoniae [27] and in the data set with Streptococcus pneumoniae [28] was Active. Besides, the outcome in the data set on Streptococcus pneumoniae [29], in the data set on Streptococcus pneumoniae [30], in the data set on Streptococcus pneumoniae [31] and in the data set on Streptococcus pneumoniae [32] was Active. Further, the result in the data set on Streptococcus pneumoniae [5], with Streptococcus pneumoniae [14], with Streptococcus pneumoniae [15] and in the data set with Streptococcus pneumoniae [24] was inactive.

Take `C[C@H]1COc2c(N3CCN(C)CC3)c(F)cc3c(=O)c(C(=O)O)cn1c23.C[C@H]1COc2c(N3CCN(C)CC3)c(F)cc3c(=O)c(C(=O)O)cn1c23.O` [LEVOFLOXACIN]: the result with Streptococcus pneumoniae [33], with Streptococcus pneumoniae [34], in the data set on Streptococcus pneumoniae [36] and in the data set on Streptococcus pneumoniae [41] was Active. The outcome in the data set on Streptococcus pneumoniae [35] was inactive. Further, the half-life in data set [37] was 20 h; in data set [40], 7 h. In addition, the MBC in the data set with Streptococcus pneumoniae [38] worked out at 1 µg/mL. In data set [39], this compound registered a fAUC of 36000 ng·h/mL.

`O=C(O)c1cn(C2CC2)c2cc(N3CCNCC3)c(F)cc2c1=O` [CIPROFLOXACIN]: the outcome in the data set with Streptococcus pneumoniae [42], in the data set on Streptococcus pneumoniae [36] and with Streptococcus pneumoniae [23] was Active. For the same compound, the outcome in the data set with Streptococcus pneumoniae [43] was inactive. Further, the MBC in the data set on Streptococcus pneumoniae [38] stood at 1 µg/mL. The MIC with Streptococcus pneumoniae [38] is 1 µg/mL; against Streptococcus pneumoniae [44], 2 µg/mL (≈ 6.04 µM).
